Earlier results, collected in US20210400979A1, “ANTI-VIRAL FACE MASK AND FILTER MATERIALS” (priority 2020, published 2021).

What was measured:
[1] = system: RTCs of SARS-CoV (RNA-synthesizing activity); conditions: RTCs isolated from SARS-CoV infected cells, various Zn^2+ concentrations (FIG. 13A)

Compound	RNA-synthesizing activity of the RTCs of the virus [1]	water solubility (in words)
[Zn+2] [Zn^2+]	efficiently inhibits	–
zinc picolinate	–	moderately water soluble
